Source: US20210255193A1, “LYSINE REACTIVE PROBES AND USES THEREOF” (The Scripps Research Institute, priority 2017, published 2021)

Assays:
Assay in all cases: competitive isoTOP-ABPP
Format in all cases: binding
[1] = molecular target: T1, EHD1 EH domain-containing protein 1 (Homo sapiens, UniProt Q9H4M9)
T1 construct: endogenous in cells; host or cells: MDA-MB-231 (soluble fraction of lysate)
T1 sequence (Q9H4M9 1-534): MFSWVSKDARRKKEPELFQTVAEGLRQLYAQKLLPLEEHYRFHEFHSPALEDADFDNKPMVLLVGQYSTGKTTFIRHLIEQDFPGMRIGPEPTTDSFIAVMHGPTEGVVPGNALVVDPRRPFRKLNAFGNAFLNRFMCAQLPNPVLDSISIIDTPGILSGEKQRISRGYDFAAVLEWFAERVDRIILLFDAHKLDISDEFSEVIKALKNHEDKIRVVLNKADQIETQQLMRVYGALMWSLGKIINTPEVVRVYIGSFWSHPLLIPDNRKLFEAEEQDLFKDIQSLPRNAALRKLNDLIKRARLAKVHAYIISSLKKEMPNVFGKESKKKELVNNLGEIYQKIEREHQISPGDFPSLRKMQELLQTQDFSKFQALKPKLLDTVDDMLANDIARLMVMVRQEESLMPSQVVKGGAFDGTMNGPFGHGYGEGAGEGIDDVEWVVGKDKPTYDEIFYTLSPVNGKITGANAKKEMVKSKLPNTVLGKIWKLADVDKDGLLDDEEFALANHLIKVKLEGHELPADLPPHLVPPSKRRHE
Summary of the method: (§1)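 Here, isoTOP-ABPP measures loss of STP-alkyne labeling at individual lysines after fragment exposure in lysate. Activated esters are dosed at 50 μM, guanidinylating agents at 100 μM; the probe follows at 0.1 mM for 1 h. R ≥4 marks a liganded lysine.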

[2] = molecular target: T2, PTGR1 Prostaglandin reductase 1 (Homo sapiens, UniProt Q14914)
T2 construct: isoTOP-ABPP experiments performed in cell lysates (in vitro); endogenous in cells; host or cells: soluble proteome of human cancer cell lines (MDA-MB-231; Ramos and Jurkat also prepared)
T2 sequence (Q14914 whole entry): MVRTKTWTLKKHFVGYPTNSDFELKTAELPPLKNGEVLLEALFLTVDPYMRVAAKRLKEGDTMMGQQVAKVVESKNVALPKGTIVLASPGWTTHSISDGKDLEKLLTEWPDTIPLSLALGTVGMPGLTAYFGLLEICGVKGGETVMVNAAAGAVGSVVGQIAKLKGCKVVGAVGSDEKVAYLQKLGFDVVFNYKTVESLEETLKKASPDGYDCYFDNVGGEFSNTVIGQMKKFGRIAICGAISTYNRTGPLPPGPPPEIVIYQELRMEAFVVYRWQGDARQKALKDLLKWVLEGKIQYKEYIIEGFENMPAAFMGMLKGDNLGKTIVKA
Summary of the method: as §1

[3] = molecular target: T3, MAP4K5 Mitogen-activated protein kinase kinase kinase kinase 5 (Homo sapiens, UniProt Q9Y4K4); conditions: 50 uM, 231 sol, in vitro
T3 construct: endogenous in cells; host or cells: MDA-MB-231 (soluble fraction of lysate)
T3 sequence (Q9Y4K4 whole entry): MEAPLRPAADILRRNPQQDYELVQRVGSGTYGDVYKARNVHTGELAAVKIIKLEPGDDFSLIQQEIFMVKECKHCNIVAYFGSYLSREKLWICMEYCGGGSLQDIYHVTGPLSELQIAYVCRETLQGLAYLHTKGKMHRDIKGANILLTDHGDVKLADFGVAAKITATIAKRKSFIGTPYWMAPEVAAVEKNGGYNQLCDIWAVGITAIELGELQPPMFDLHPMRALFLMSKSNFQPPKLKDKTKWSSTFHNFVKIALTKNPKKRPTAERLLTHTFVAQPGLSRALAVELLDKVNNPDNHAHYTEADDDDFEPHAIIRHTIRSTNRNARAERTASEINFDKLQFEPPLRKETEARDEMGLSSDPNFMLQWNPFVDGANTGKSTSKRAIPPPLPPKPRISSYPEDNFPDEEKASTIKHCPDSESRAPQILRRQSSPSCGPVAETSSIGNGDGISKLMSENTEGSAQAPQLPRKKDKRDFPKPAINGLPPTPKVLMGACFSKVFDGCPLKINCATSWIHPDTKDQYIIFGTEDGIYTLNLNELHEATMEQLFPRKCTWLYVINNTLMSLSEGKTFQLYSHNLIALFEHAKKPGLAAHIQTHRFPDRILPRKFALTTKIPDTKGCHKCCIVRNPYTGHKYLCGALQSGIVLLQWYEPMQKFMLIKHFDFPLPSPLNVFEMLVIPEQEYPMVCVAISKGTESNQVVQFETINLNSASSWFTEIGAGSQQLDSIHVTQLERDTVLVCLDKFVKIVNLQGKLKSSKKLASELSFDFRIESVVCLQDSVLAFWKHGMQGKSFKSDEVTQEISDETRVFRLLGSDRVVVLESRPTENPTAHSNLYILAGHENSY
Summary of the method: as §1

[4] = molecular target: T4, REEP5 Receptor expression-enhancing protein 5 (Homo sapiens, UniProt Q00765)
T4 construct: isoTOP-ABPP experiments performed in cell lysates (in vitro); endogenous in cells; host or cells: soluble proteome of human cancer cell lines (MDA-MB-231, Ramos, Jurkat)
T4 sequence (Q00765 whole entry): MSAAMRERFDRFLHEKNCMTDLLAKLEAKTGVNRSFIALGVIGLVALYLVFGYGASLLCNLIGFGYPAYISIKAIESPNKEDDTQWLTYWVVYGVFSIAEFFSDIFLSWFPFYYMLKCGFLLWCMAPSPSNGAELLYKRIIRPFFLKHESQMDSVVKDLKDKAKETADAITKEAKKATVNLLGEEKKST
Summary of the method: as §1

[5] = molecular target: T5, OAT Ornithine aminotransferase, mitochondrial (Homo sapiens, UniProt P04181); conditions: for isoTOP-ABPP reactivity ratio at lysine P04181_K66: 50 uM, 231 sol, in vitro
T5 construct: isoTOP-ABPP experiments performed in cell lysates (in vitro); endogenous in cells; host or cells: MDA-MB-231 soluble lysate
T5 sequence (P04181 26-439): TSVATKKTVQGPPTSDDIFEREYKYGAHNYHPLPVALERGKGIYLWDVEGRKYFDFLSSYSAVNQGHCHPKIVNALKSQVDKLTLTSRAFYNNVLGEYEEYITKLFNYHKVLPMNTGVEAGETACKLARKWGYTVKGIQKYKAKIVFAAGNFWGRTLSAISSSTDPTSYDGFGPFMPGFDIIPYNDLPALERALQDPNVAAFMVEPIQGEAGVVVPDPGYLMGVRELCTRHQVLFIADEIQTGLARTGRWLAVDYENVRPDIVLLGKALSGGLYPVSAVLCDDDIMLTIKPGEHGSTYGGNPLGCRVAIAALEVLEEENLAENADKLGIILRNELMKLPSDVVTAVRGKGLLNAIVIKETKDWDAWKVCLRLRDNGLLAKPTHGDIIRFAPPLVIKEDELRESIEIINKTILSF
Summary of the method: as §1

[6] = molecular target: T6, F3 Tissue factor (Homo sapiens, UniProt P13726); conditions: for isoTOP-ABPP ratio (R) at liganded lysine P13726_K279: 50 uM, in vitro, sol, 231
T6 construct: isoTOP-ABPP experiments performed in cell lysates (in vitro); endogenous in cells; host or cells: soluble proteome of human cancer cell lines (MDA-MB-231; Ramos and Jurkat also prepared)
T6 sequence (P13726 33-295): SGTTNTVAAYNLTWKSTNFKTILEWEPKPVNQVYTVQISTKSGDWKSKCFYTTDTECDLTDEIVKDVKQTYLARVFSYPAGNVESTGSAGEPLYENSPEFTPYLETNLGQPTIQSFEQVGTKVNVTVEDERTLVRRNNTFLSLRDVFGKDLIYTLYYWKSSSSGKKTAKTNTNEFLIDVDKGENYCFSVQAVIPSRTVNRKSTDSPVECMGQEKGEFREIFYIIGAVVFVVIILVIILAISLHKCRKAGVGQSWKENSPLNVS
Summary of the method: as §1

**Q.** How did the “R value (DMSO/fragment) for probe 1 labeling” value (shortened to “R value (DMSO/fragment)”) ([1]; Q9H4M9_K511, 50 uM, 231 sol, in vitro) turn out when `O=C(CCc1cn(-c2ccccc2)nc1-c1ccccc1)Oc1c(F)c(F)c(F)c(F)c1F` [fragment 19, Pentafluorophenyl 3-(1,3-diphenyl-1H-pyrazol-4-yl)propanoate] was run?
**A.** 0.8

**Q.** Which “R value (DMSO/fragment)” value ([2]; Q14914_K194, 50 uM, 231 sol, in vitro) does the source give for `O=C(Oc1c(F)c(F)c(F)c(F)c1F)C(c1ccccc1)c1ccccc1` [fragment 20, Pentafluorophenyl 2,2-diphenylacetate] here?
**A.** 1.6

**Q.** How did the “R value (DMSO/fragment)” value ([3]; Q9Y4K4_K49) turn out when `O=C(Oc1c(F)c(F)c(F)c(F)c1F)c1cc(C(F)(F)F)cc(C(F)(F)F)c1` [fragment 21, Pentafluorophenyl 3,5-bis(trifluoromethyl)benzoate] was run?
**A.** 0.6

**Q.** `Cn1cc(CC(=O)Oc2c(F)c(F)c(F)c(F)c2F)c2ccccc21` [fragment 22, Pentafluorophenyl 2-(1-methyl-1H-indol-3-yl)acetate] was tested. Which “R value (DMSO/fragment)” value ([4]; Q00765_K147, 50 uM, 231 sol, in vitro) did it give?
**A.** 4.8

**Q.** `O=C(Oc1c(F)c(F)c(F)c(F)c1F)C1CCN(C(=O)OCc2ccccc2)CC1` [fragment 24, 1-Benzyl 4-(pentafluorophenyl) piperidine-1,4-dicarboxylate] was tested. Which “isoTOP-ABPP reactivity ratio at lysine P04181_K66” value [5] did it give?
**A.** 0.6

**Q.** How did the “isoTOP-ABPP reactivity ratio at lysine Q9Y4K4_K49” value [3] turn out when `O=C(CCc1cn(-c2ccccc2)nc1-c1ccccc1)Oc1ccc([N+](=O)[O-])cc1[N+](=O)[O-]` [fragment 29, 2,4-Dinitrophenyl 3-(1,3-diphenyl-1H-pyrazol-4-yl)propanoate] was run?
**A.** 1.8

**Q.** Which results are given for `O=C(Oc1ccc([N+](=O)[O-])cc1[N+](=O)[O-])C(c1ccccc1)c1ccccc1` [fragment 30, 2,4-Dinitrophenyl 2,2-diphenylacetate]?
**A.** isoTOP-ABPP reactivity ratio at lysine Q00765_K147 ([4]; 50 uM, 231 sol, in vitro): 20.0; isoTOP-ABPP reactivity ratio at lysine Q9H4M9_K511 ([1]; 50 uM, 231 sol, in vitro): 0.9

**Q.** `O=C(Oc1ccc([N+](=O)[O-])cc1[N+](=O)[O-])c1cc(C(F)(F)F)cc(C(F)(F)F)c1` [fragment 31, 2,4-Dinitrophenyl 3,5-bis(trifluoromethyl)benzoate] was tested. Which “isoTOP-ABPP reactivity ratio at lysine Q00765_K147” value ([4]; 50 uM, 231 sol, in vitro) did it give?
**A.** 3.0

**Q.** How did the “isoTOP-ABPP reactivity ratio at lysine P04181_K66” value [5] turn out when `Cn1cc(CC(=O)Oc2ccc([N+](=O)[O-])cc2[N+](=O)[O-])c2ccccc21` [fragment 32, 2,4-Dinitrophenyl 2-(1-methyl-1H-indol-3-yl)acetate] was run?
**A.** 9.3

**Q.** What about the “isoTOP-ABPP reactivity ratio at lysine Q9H4M9_K511” value ([1]; 50 uM, 231 sol, in vitro) of the same compound?
**A.** 1.2

**Q.** What about the “isoTOP-ABPP reactivity ratio at lysine Q9Y4K4_K49” value [3] of the same compound?
**A.** 5.3

**Q.** For `COc1cc(CCC(=O)Oc2ccc([N+](=O)[O-])cc2[N+](=O)[O-])cc(OC)c1OC` [fragment 33, 2,4-Dinitrophenyl 3-(3,4,5-trimethoxyphenyl)propanoate], which “isoTOP-ABPP reactivity ratio at lysine P04181_K66” value [5] is on record?
**A.** 1.0

**Q.** With `O=C(CCc1coc2cc(F)ccc2c1=O)Oc1ccc([N+](=O)[O-])cc1[N+](=O)[O-]` [fragment 36, 2,4-Dinitrophenyl 3-(7-fluoro-4-oxo-4H-chromen-3-yl)propanoate] as the compound, how does the “isoTOP-ABPP ratio (R) at liganded lysine Q14914_K194” value ([2]; 50 uM, in vitro, sol, 231) read?
**A.** 1.7

**Q.** What does the source list for `O=C(Oc1ccc([N+](=O)[O-])cc1[N+](=O)[O-])c1ccc(Oc2ccccc2)cc1` [fragment 39, 2,4-Dinitrophenyl 4-phenoxybenzoate]?
**A.** isoTOP-ABPP ratio (R) at liganded lysine Q00765_K147 ([4]; 50 uM, in vitro, sol, 231): 1.2; isoTOP-ABPP ratio (R) at liganded lysine P13726_K279 [6]: 1.8

**Q.** Which results are given for `CC(=O)Oc1ccc([N+](=O)[O-])cc1[N+](=O)[O-]` [fragment 43, 2,4-Dinitrophenyl acetate]?
**A.** isoTOP-ABPP ratio (R) at liganded lysine P13726_K279 [6]: 1.1; isoTOP-ABPP ratio (R) at liganded lysine Q9H4M9_K511 ([1]; 50 uM, in vitro, sol, 231): 20.0

**Q.** `N#Cc1ccc(C(=O)Oc2ccc([N+](=O)[O-])cc2[N+](=O)[O-])cc1` [fragment 44, 2,4-Dinitrophenyl 4-cyanobenzoate] was tested. Which “isoTOP-ABPP ratio, lysine P13726_K279” value ([6]; 50 uM_231_sol_in vitro) did it give?
**A.** 1.1

**Q.** For `O=C(CCc1ccc2c(c1)OCO2)Oc1ccc([N+](=O)[O-])cc1[N+](=O)[O-]` [fragment 45, 2,4-Dinitrophenyl 3-(benzo[d][1,3]dioxol-5-yl)propanoate], which “isoTOP-ABPP ratio, lysine Q00765_K147” value ([4]; 50 uM_231_sol_in vitro) is on record?
**A.** 2.7

**Q.** What about the “isoTOP-ABPP ratio, lysine Q14914_K194” value ([2]; 50 uM_231_sol_in vitro) of the same compound?
**A.** 5.5

**Q.** And the “isoTOP-ABPP ratio, lysine P13726_K279” value ([6]; 50 uM_231_sol_in vitro)?
**A.** 4.2

**Q.** With `O=C(Oc1c(F)c(F)c(C(F)(F)F)c(F)c1F)c1cc(C(F)(F)F)cc(C(F)(F)F)c1` [fragment 47, 2,3,5,6-Tetrafluoro-4-(trifluoromethyl)phenyl 3,5-bis(trifluoromethyl)benzoate] as the compound, how does the “isoTOP-ABPP ratio, lysine Q9H4M9_K511” value ([1]; 50 uM_231_sol_in vitro) read?
**A.** 20.0

**Q.** With `COC(=O)NC(=NC(=O)OCC1c2ccccc2-c2ccccc21)n1cccn1` [fragment 49, N-Methoxycarbonyl-N′-9-fluorenylmethoxycarbonyl-pyrazole-1-carboxamidine] as the compound, how does the “isoTOP-ABPP ratio, lysine Q14914_K194” value ([2]; 100 uM_231_sol_in vitro) read?
**A.** 1.3

**Q.** What does the source list for `CC(C)(C)OC(=O)N=C(NC(=O)OC(C)(C)C)n1cccn1` [fragment 50, reference compound]?
**A.** isoTOP-ABPP ratio, lysine Q14914_K194 ([2]; 100 uM_231_sol_in vitro): 1.2; isoTOP-ABPP ratio, lysine P04181_K66 ([5]; 100 uM_231_sol_in vitro): 9.9; isoTOP-ABPP ratio, lysine P13726_K279 ([6]; 100 uM_231_sol_in vitro): 1.0
